In patent publication US20250011316A1, “PEROXIREDOXIN 3 INHIBITORS AND METHODS OF USE FOR TREATING CANCER” (Wake Forest University Health Sciences, priority 2022, published 2025):
pEC50: −log10 of the molar value. ≈ marks a conversion by molar mass, not a printed value.

Experiments:
[1] = Solubility Assay (HPLC); type: physicochemical; conditions: HEPES/NaCl buffer, aqueous with cosolvent or surfactant or cyclodextrin, kinetic from dmso stock; 20 mM HEPES, 100 mM NaCl, pH 7.5, 18-24 hours at ambient temperature; read-out: Solubility
Experimental: A 20 mM stock solution was made for each compound in DMSO. To measure solubility, 0.03-0.05 mL of the stock was added to 0.27 mL 20 mM HEPES, 100 mM NaCl, pH 7.5. The solution was mixed and rotated 18-24 hours at ambient temperature. The next day, solutions were centrifuged for 10 min at 20,000×g at […] to remove insoluble, solid material. Next, 100 μL of the supernatant containing the soluble compound was added to 900 μL DMSO and High Performance Liquid Chromatography was performed as described in Table 1 and either HIPLC gradient 1 (Table 2) or HIPLC gradient 2 (Table 3). For each analog, a 200 μM standard and a 20 μM standard were prepared and run in parallel (standards were dissolved completely in […]). The amount ofLcompound in the experimental sample was calculated by comparing the area under the curve for compound peak to the area for the closest standard and correcting for dilution.

[2] = system: human SK—OV-3 ovarian cancer cells; assay: Cellular Activity Assay (cytotoxicity, crystal violet); type: cell-based; conditions: Homo sapiens, SK—OV-3 cells, treated for 48 hr, 0.1-100 μM, crystal violet absorbance at 540 nm
Text: (§1) To test the activity of compounds, two complimentary assays were used as described below. The Biochemical PRX3 Inhibition Assay tests the ability of each compound to crosslink PRX3 in a simple, in vitro system. In the Cellular Activity Assay, we are testing the ability of compounds to kill SK—OV-3 ovarian cancer cells.
The Cellular Activity Assay measures the EC50 of each compound in human SK—OV-3 ovarian cancer cells TS to be taken into the cell, transported to the mitochondria, and crosslink PRX3.
The cytotoxicity of compounds was measured as described in Nelson et al. (2021) Antioxidants (Basel) 10, 150; Cunniff et al. (2015) PloS one 10, e0127310; and Newick et al. (2012) PloS one 7, e39404. SK—OV-3 is an adherent, epithelial, adenocarcinoma cell line obtained from ATCC (ref #: HTB-77). SK—OV-3 cells are resistant to the commonly used chemotherapeutics, cis-platinum and doxorubicin. For this […], SK—OV-3 cells were plated in a 96-well plate. After 24 h recovery, the cells were treated for 48 hr with multiple concentrations of each compound ranging from 0.1-100 μM.
Cells were washed with PBS to remove dead cells and the remaining live cells were fixed with 3.0% formaldehyde and stained with 0.1% crystal violet. The amount of crystal violet was determined by reading the absorbance at 540 nm (crystal violet dye dissolved in 100% methanol) using a plate reader. The signal for crystal violet dye is proportional to the biomass of remaining live cells. GraphPad Prism9 software was used to calculate the effective inhibitory concentration (EC50) of test compounds. Results for each compound, are normalized to the amount of cells in control wells treated with the equivalent concentration of DMSO (negative control). TS or Compound 4 were included in each set of assays as a positive control.

[3] = target: T1, purified human PRX3 (Homo sapiens, UniProt P30048); assay: Biochemical PRX3 Inhibition Assay (non-reducible crosslink by SDS PAGE + single adduct by MALDI-TOF MS); conditions: 100 μM PRX3 with TRX2/thioredoxin reductase/NADPH system and hydrogen peroxide, 1-2 hr at 37° C.
T1 construct: made in house
T1 sequence (P30048 62-256): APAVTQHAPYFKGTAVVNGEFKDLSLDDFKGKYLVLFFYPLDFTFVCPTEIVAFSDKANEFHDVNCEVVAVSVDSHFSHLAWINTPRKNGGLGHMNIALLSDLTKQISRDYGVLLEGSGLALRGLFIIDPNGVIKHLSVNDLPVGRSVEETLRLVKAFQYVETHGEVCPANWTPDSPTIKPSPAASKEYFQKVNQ
Text: The compounds described herein generally react with two essential cysteine residues in the mitochondrial peroxidase PRX3, leading to the formation of a non-reducible, covalent crosslink of two PRX3 monomers. This crosslink inactivates PRX3. Increased PRX3 crosslink is associated with mitochondrial stress, increased cell death in cell models of malignant mesothelioma and is associated with decreased tumor volume in a mouse model. Cunniff et al. (2015) PloS one 10, e0127310.
as §1
This assay tests the ability of each compound to form a covalent adduct with PRX3. The assay is performed as described in Nelson et al. (2021) Antioxidants (Basel) 10, 150; and Cunniff et al. (2015) PloS one 10, e0127310, and follows the appearance of non-reducible PRX3 crosslinks by SDS PAGE gel electrophoresis and follows the appearance of single PRX3 adducts by mass spectrometry. For this assay, purified human PRX3, hydrogen peroxide (the PRX3 substrate) and all the components required to enable PRX3 to catalytically cycle (thioredoxin-thioredoxin reductase-NAPDH system) are included (details below).
The biochemical PRX3 Inhibition assay contains 100 μM PRX3, 50 μM human TRX2, 0.5 μM mouse thioredoxin reductase, and a NADPH regenerating system composed of 3.2 mM glucose 6-phosphate, 3.2 U/ml glucose 6-phosphate dehydrogenase and 0.4 mM NADPH. Samples are incubated for 1-2 hr at 37° C. with either 0.2 mM TS (positive control), compounds or an equivalent volume of DMSO (negative control). During this incubation, hydrogen peroxide is added to induce turnover of PRX3. Reactions are stopped by the addition of a buffer containing 100 mM dithiothreitol (to break disulfide bonds) and SDS (detergent to denature proteins). NADPH, Glucose 6-Phosphate, and glucose 6-phosphate dehydrogenase were purchased from Sigma Aldrich. PRX3, thioredoxin, and thioredoxin reductase were all purified to >98% purity in the Lowther laboratory according to protocols referenced in Nelson et al. (2021) Antioxidants (Basel) 10, 150; and Cunniff et al. (2015) PloS one 10, e0127310.
To measure the amount of PRX3 crosslink, proteins in the reaction were separated by SDS-polyacrylamide gel electrophoresis and stained for total protein using GelCode Blue (Life Technologies). The amount of unmodified PRX3 and TS-PRX3 crosslink was measured by densiometric analysis of the signal for the PRX3 band running at the MW of a PRX3 crosslink (˜46 kDa) compared to the PRX3 signal at the MW of the un-modified PRX3 (−23 kD).
To measure covalent adduct formation on a single PRX3 monomer, each reaction was exchanged into a mass spectrometry compatible buffer containing 40 mM ammonium citrate, pH 8.3 made in HPLC water. Sample was mixed 1:1 with a matrix solution containing 30 mg/mL sinapinic acid in 70% (vol/vol) acetonitrile, 0.2% formic acid and spotted to onto the sample plate. PRX3 mass was measured by MALDI-TOF MS analysis on a Bruker Daltonics MALDI-TOF MS spectrometer. Spectra were analyzed in FLEXAnalysis Software. The intensity of the reduced PRX3 peak (SH) and intensity of the analog adduct peak was determined and corrected for background signal at the adduct peak in the DMSO control. The fraction of single analog adduct in the monomer peak was determined by dividing the intensity of the adduct peak by the summed intensity of the SH and adduct peaks.

[4] = system: Enterococcus hirae (ATCC #10541); assay: Antimicrobial Activity Assay (MIC / growth inhibition); type: cell-based; conditions: ATCC10541; Enterococcus hirae; analogs tested at 20 μM final concentration
Experimental: The overnight growth was then diluted into growth media to make a single solution of E. hirae with a final optical density at 600 nm=0.02 AU. A 20 mM stock solution of Thiostrepton in DMSO was made and used to make multiple dilutions of TS in DMSO. Each TS dilution (0.1 mL) was then added to a test tube containing 10 mL of the diluted E. hirae and grown at 37° C. overnight while shaking at 180 rpm. The next morning, each tube was visually inspected to determine if the cells grew. Final concentrations tested were 0.120, 0.090, 0.075, 0.060, 0.045, 0.030, and 0.015 μM TS. […] Three replicates were made on three separate days (n=9). […] For TS analogs, the dilute E. hirae was treated with 20 μM final concentration of each analog (three replicates each). […] DMSO was used as a positive control (complete cell growth) and 20 μM thiostrepton was used as a negative control.

C=C(NC(=O)c1csc(C2CCN(C(=O)OC(C)(C)C)CC2)n1)C(=O)NC(=C)C(=O)OC [Compound 1, Tert-butyl 4-(4-((3-((3-methoxy-3-oxoprop-1-en-2-yl)amino)-3-oxoprop-1-en-2-yl)carbamoyl)thiazol-2-yl)piperidine-1-carboxylate]
solubility [1]: 100 to 1000 µM (≈ 46.5 to 465 µg/mL) | pEC50 [2]: 5.00 to 6.00 | PRX3 Inhibition (Crosslink + Mono-adduct) [3]: ++ (50-90%) | MIC [4]: > 20 µM

C=C(NC(=O)c1csc(-c2ccc(NC(=O)OC(C)(C)C)nc2)n1)C(=O)NC(=C)C(=O)OC [Compound 2, Methyl 2-(2-(2-(6-((tert-butoxycarbonyl)amino)pyridine-3-yl)thiazole-4-carboxamido)acrylamido acrylate]
solubility [1]: < 100 µM | pEC50 ([2]; SK-OV-3, 48 h): 5.00 to 6.00 | PRX3 Inhibition (Crosslink + Mono-adduct) [3]: ++ (50-90%) | MIC [4]: > 20 µM

C=C(NC(=O)c1csc(C2CCCN(C(=O)OC(C)(C)C)C2)n1)C(=O)NC(=C)C(=O)OC (centres unmarked) [Compound 3, Tert-butyl 3-(4-((3-((3-methoxy-3-oxoprop-1-en-2-yl)amino)-3-oxoprop-1-en-2-yl)carbamoyl)thiazol-2-yl)piperidine-1-carboxylate]
solubility [1]: 100 to 1000 µM (≈ 46.5 to 465 µg/mL) | pEC50 [2]: 4.60 to 5.00 | PRX3 Inhibition (Crosslink + Mono-adduct) [3]: ++ (50-90%) | MIC [4]: > 20 µM

C=C(NC(=O)c1csc(-c2ccc(NC(=O)CCCCCBr)cc2)n1)C(=O)NC(=C)C(=O)OC [Compound 4, Methyl 2-(2-(2-(4-(6-bromohexanamido)phenyl)thiazole-4-carboxamido)acrylamido)acrylate]
solubility [1]: < 100 µM | pEC50 [2]: 5.00 to 6.00 | PRX3 Inhibition (Crosslink + Mono-adduct) [3]: ++ (50-90%) | MIC [4]: > 20 µM

C=C(NC(=O)c1csc(-c2ccc(NC(=O)OC(C)(C)C)cc2)n1)C(=O)NC(=C)C(=O)OC [Compound 5, Methyl 2-(2-(2-(4-((tert-butoxycarbonyl)amino)phenyl)thiazole-4-carboxamido)acrylamido)acrylate]
solubility [1]: < 100 µM | pEC50 [2]: 5.00 to 6.00 | PRX3 Inhibition (Crosslink + Mono-adduct) [3]: +++ (>90%) | MIC [4]: > 20 µM

C=C(NC(=O)c1csc(-c2ccc(C(=O)NCCCCCCOS(C)(=O)=O)nc2)n1)C(=O)NC(=C)C(=O)OC [Compound 6, Methyl 2-(2-(2-(6-((6-((methylsulfonyl)oxy)hexyl)carbamoyl)pyridine-3-yl)thiazole-4-carboxamido)acrylamido)acrylate]
solubility [1]: < 100 µM | pEC50 [2]: 5.00 to 6.00 | PRX3 Inhibition (Crosslink + Mono-adduct) [3]: +++ (>90%) | MIC [4]: > 20 µM

C=C(NC(=O)c1csc(-c2ccc(OC)cc2)n1)C(=O)NC(=C)C(=O)OC [Compound 7, Methyl 2-(2-(2-(4-methoxyphenyl)thiazole-4-carboxamido)acrylamido)acrylate]
solubility [1]: < 100 µM | pEC50 [2]: 5.00 to 6.00 | PRX3 Inhibition (Crosslink + Mono-adduct) [3]: ++ (50-90%) | MIC [4]: > 20 µM

C=C(NC(=O)c1csc(-c2ccc(CNC(=O)OC(C)(C)C)cc2)n1)C(=O)NC(=C)C(=O)OC [Compound 8, Methyl 2-(2-(2-(4-(((tert-butoxycarbonyl)amino)methyl)phenyl)thiazole-4-carboxamido)acrylamido)acrylate]
solubility [1]: < 100 µM | pEC50 [2]: 5.00 to 6.00 | PRX3 Inhibition (Crosslink + Mono-adduct) [3]: +++ (>90%) | MIC [4]: > 20 µM

C=C(NC(=O)c1csc(C2=CCN(C(=O)OC(C)(C)C)CC2)n1)C(=O)NC(=C)C(=O)OC [Compound 9, Tert-butyl 4-(4-((3-((3-methoxy-3-oxoprop-1-en-2-yl)amino)-3-oxoprop-1-en-2-yl)carbamoyl)thiazol-2-yl)-3,6-dihydropyridine-1(2H)-carboxylate]
solubility [1]: < 100 µM | pEC50 [2]: 5.00 to 6.00 | PRX3 Inhibition (Crosslink + Mono-adduct) [3]: +++ (>90%) | MIC [4]: > 20 µM

C=C(NC(=O)c1csc(-c2ccc(C(=O)NCCOC)cc2)n1)C(=O)NC(=C)C(=O)OC [Compound 10, Methyl 2-(2-(2-(4-((2-methoxyethyl)carbamoyl)phenyl)thiazole-4-carboxamido)acrylamido)acrylate]
solubility [1]: < 100 µM | pEC50 [2]: 5.00 to 6.00 | PRX3 Inhibition (Crosslink + Mono-adduct) [3]: +++ (>90%) | MIC [4]: > 20 µM

C=C(NC(=O)c1csc(N2CCC[C@@H](NC(=O)OC(C)(C)C)C2)n1)C(=O)NC(=C)C(=O)OC [Compound 11, Methyl (R)-2-(2-(2-(3-((tert-butoxycarbonyl)amino)piperidin-1-yl)thiazole-4-carboxamido)acrylamido)acrylate]
solubility [1]: < 100 µM | pEC50 [2]: 5.00 to 6.00 | PRX3 Inhibition (Crosslink + Mono-adduct) [3]: +++ (>90%) | MIC [4]: > 20 µM
